Assay results: patent publication US9155804B2, “Contrast enhancement agents and method of use thereof” (General Electric Company, priority 2012, dated 2015)

Columns and labels:
[1] = Hydrodynamic size assay (dynamic light scattering); type: physicochemical
Method: The dilution was carried out to yield approximately 20,000 counts per second during the DLS measurement and the sample was allowed to equilibrate for 10 minutes in the instrument prior to data collection.

[2] = system: MATBIII breast cancer cells; assay: Dynamic contrast enhanced MR tumor imaging in MATBIII tumor bearing mice; type: in vivo, SCID mice; conditions: DCE MR, dose 0.2 mmol/kg Gd, Fe, mammary MBIII rodent tumor model
Method: Cell Preparation: MATBIII breast cells (available from ATCC®) were trypsinized using 1× trypsin-EDTA. The cells were washed using IX phosphate buffered saline (PBS) and aliquots of 2×10^6 cells were made in 1×PBS (100 uL). Prior to injection into the subject, 50 μL of basement membrane matrix (Matrigel®, BD Biosciences) was added to each aliquot.
Tumor Induction: All procedures involving animals were completed under protocols approved by the GE Global Research Institutional Animal Care and Use Committee. Female, 5-7 weeks old, SCID mice (Charles River Laboratories) were briefly anesthetized with 2% isoflurane and injected with 1×10^6 MATBIII breast cancer cells in 1×PBS (100 μL) and Matrigel SC to their left flank. The animals were monitored for 7 days post tumor cell injections at which point, precontrast agent MR images of the resulting lesions, typically 1 cm in diameter, were collected using the sequences described below.

## CNC[C@H](O)[C@@H](O)[C@H](O)[C@H](O)CO.CNC[C@H](O)[C@@H](O)[C@H](O)[C@H](O)CO.O=C([O-])CN(CCN(CC(=O)[O-])CC(=O)O)CCN(CC(=O)[O-])CC(=O)O.[Gd+3] [Magnevist - Gd]
[1]
  Agent size (hydrodynamic diameter): Magnevist - Gd (1 nm)
[2]
  Tumor-to-muscle signal enhancement ratio (Tumor: Muscle), Average: 3.6
